Assay results: patent US12215067B2, “Chemical compounds targeting the eye and use thereof in the treatment of eye diseases” (BIOPHYTIS, priority 2019, dated 2025)

Tests used:
[1] = test system: primary cultures of RPE of adult pigs; assay: In vitro photoprotection of RPE cells illuminated with blue light in the presence of A2E; assay type: cell-based, pig; conditions: A2E 30 μM, survival 24 h after illumination; for viability at 5 µM / viability at 10 µM / viability at 20 µM: Sus scrofa, RPE
From the text: In addition to better distribution in the target-tissue, selecting new compounds must also be based on good photo-protective activity that limits the loss of the cells of the RPE and thus reducing the retinal degeneration observed during the AMD and other degenerative diseases such as Retinitis pigmentosa and Stargardt's disease. At the cellular level, on cultures of cells the RPE coming from pig retina, Fontaine et al. (2016) have shown that a treatment with norbixin (BIO201) protects the cells of the RPE against apoptosis following an illumination in the presence of A2E (80% survival 24 h after exposure). This same screening test according to the percentage of photoprotection was used so as to determine its modulation by and the chemical compounds derived from norbixin (C) object of the present invention in comparison with the photo-protective effect of norbixin and characterize these modulations from a statical standpoint.
The test in vitro described hereinabove and intended to study the photo-protective effect of norbixin was used so as to quantify the photo-protective effects of the various chemical compounds derived from norbixin (C) on the cells of the RPE illuminated with blue light in the presence of A2E (FIG. 3). The photo-protective effect of the molecules was evaluated in a phototoxicity cellular model induced by treatment by A2E followed by an illumination with blue light. The term “blue radiation” means the radiation corresponding to the blue band of the visible light spectrum, i.e. of a wavelength comprised between 435 and 490 nm. This model uses primary cultures of RPE of adult pigs. The cell survival is quantified thanks to a test of cellular viability. At −48 h the compounds to be tested (in solution at 5 mM in the DMSO) are added to obtain the final concentrations of 1 to 20 μM) then at −19 h of the A2E (final concentration 30 μM) and the cells (time 0 h) are illuminated. 24 h after the survival of the cells is measured. The acquisition of images, as well as the processing thereof, are carried out using a fluorescence microscope controlled by the Metamorph software and a dedicated quantification program. The experiments are conducted on a 96-well microplate in quadruplicate and the experiment is reproduced at least four times. The results are expressed in the form of a ratio representing the number of living cells in the wells treated by the molecules to be tested, divided by the number of living cells in the controlled wells (treated by the dilution medium without A2E). This test made it possible hereinabove to reveal the photo-protective activity of norbixin (Fontaine et al. 2016).

[2] = Pharmacokinetic study via oral administration in mice, ocular concentrations; assay type: in vivo, mice C57BL/6; conditions: for Eye Exposure 50 mg/kg p.o. AUC: Table 3, repeats the eye exposure of Table 2; for Tmax: C57BL/6, mouse, eye, po
Description: (§1) The pharmacokinetic study of the chemical compounds (C) following the oral administration thereof was conducted using mice C57BL/6 (January, 53940 The Genest Saint Isle, France). The chemical compounds derived from norbixin (C) were administered at a dose of 50 mg/kg of body weight. After administration, the blood was sampled at the tail at t=0.25 h; 0.5 h; 1 h; 3 h; 6 h and 8 h. The blood samples were centrifuged and the plasmas taken. The dosage of the plasma samples made it possible to determine pharmacokinetic parameters, namely Cmax, which corresponds to the maximum concentration observed after the administration of the molecule, Tmax which is the time required to reach maximum concentration after administration of the molecule and the AUC: the area under the curve which corresponds to the plasma exposure (FIG. 2).
In parallel, the ocular concentrations of the chemical compounds derived from norbixin (C) were dosed in the following way (FIG. 1): both eyes of each mouse were taken in Precellys tubes and stored at −80° C. until the time of dosing. The eyes are then ground in the Precellys tubes with a bench homogenizer, Fast-prep (Fischer Scientific, Hampton, United States) in a mixture of organic solvents, in a first step with 500 μL of chloroform/methanol (1/1, v/v) then 500 μL of chloroform/dichloromethane (1/1, v/v). The supernatants are recovered at each step and transferred to a 96-well plate of 2 mL.
For the quantification of the chemical compounds C, a calibration curve is carried out with 8 standards (5 to 5,000 ng/mL) in the same organic solvent mixtures and transferred (100 μL) to the 96-well plate of 2 mL.
The supernatants and standards are evaporated in a EZ2 (Genevac, Ipswich, United Kingdom), without heating, then taken with 100 μL of DMSO/methanol (20:80, v/v) before being transferred to a 96-well plate of 200 μL.
(§2) The LC-MSMS analysis is carried out with a HPLC 1200 Infinity chain (Agilent Technologies, Santa-Clara, United States), a UV detector and a mass spectrometer QQQ6420 (Agilent Technologies Santa-Clara, United States). The injection volume is 5 μL. The chemical compounds C are eluted on an inverse phase column C18 (2.1*50 mm, particles 3 μm; Ace-C18-Excel, AIT) with a gradient of acetonitrile and water (containing 0.1% formic acid) and a flow rate of 0.3 mL/min. The conditions of the gradient can change according to the chemical compound C analyzed. The UV detector analyzes at 460 nm and the mass spectrometer analyzed in Mode MRM—Positive.
(§3) Table 2 discloses the pharmacokinetic results of the chemical compounds C following the administration p.o. 50 mg/kg in D-α-Tocopheryl polyethylene glycol 1000 succinate (VitE-TPGS) 20% in a sodium bicarbonate buffer (0.1M).

[3] = test system: primary cultures of RPE of adult pigs; conditions: 24 h after exposure; Fontaine et al. (2016); cited from earlier work
[4] = Pharmacokinetic study via oral administration in mice, plasma concentrations; assay type: in vivo, mice C57BL/6
Description: as §1, §2, §3

[5] = mice, p.o. 50 mg/kg in VitE-TPGS 20% in sodium bicarbonate buffer (0.1M)
[6] = C57BL/6, mouse, in vivo, po, 50 mg/kg

Row | Eye Exposure 50 mg/kg p.o. AUC [2] | Eye CMax [2, 5] | Tmax [2, 5] | Cmax [4, 6] | Plasma Exposure [4, 6] | Tmax [4, 6] | Compound | Photoprotection (%) 5 μM Mean ([1]; 5 μM compound) | Photoprotection (%) 10 μM Mean ([1]; 10 μM compound) | Photoprotection (%) 20 μM Mean ([1]; 20 μM compound) | Eye TMax [2, 5] | survival of RPE cells after illumination in the presence of A2E [3] | Plasma CMax [4, 5] | Plasma TMax [4, 5] | Plasma Exposure ([4]; mice, p.o. 50 mg/kg in VitE-TPGS 20% in sodium bicarbonate buffer (0.1M), area under the curve) | viability at 5 µM ([1]; 5 μM compound) | viability at 10 µM ([1]; 10 μM compound) | viability at 20 µM ([1]; 20 μM compound)
1 | 54.7 ng · h/eye | 11 ng/eye | 2 h | 5010 ng/mL | 24.1 µg·h/mL | 1 h | CCOCC1CCN(C(=O)/C=C/C(C)=C/C=C/C(C)=C/C=C/C=C(C)/C=C/C=C(C)\C=C\C(=O)O)CC1 [C23, 1-[4-ethylmethoxypiperidinamido](2E,4E,6E,8E,10E,12E,14E,16Z,18E)-4,8,13,17-tetramethylicosa-2,4,6,8,10,12,14,16,18-nonaenedioate] | – | – | – | – | – | – | – | – | 38.4% | 59.2% | 73.1%
2 | 499.1 ng · h/eye | 96 ng/eye | 1.5 h | 48300 ng/mL | 141.9 µg·h/mL | 0.5 h | COC1CCN(C(=O)/C=C/C(C)=C/C=C/C(C)=C/C=C/C=C(C)/C=C/C=C(C)\C=C\C(=O)O)CC1 [C24, 1-[4-methoxypiperidinamido](2E,4E,6E,8E,10E,12E,14E,16Z,18E)-4,8,13,17-tetramethylicosa-2,4,6,8,10,12,14,16,18-nonaenedioate] | – | – | – | – | – | – | – | – | 47% | 69% | 84%

Row | Compound | Eye Exposure 50 mg/kg p.o. AUC [2] | Eye CMax [2, 5] | Tmax [2, 5] | Cmax [4, 6] | Plasma Exposure [4, 6] | Tmax [4, 6] | Photoprotection (%) 5 μM Mean ([1]; 5 μM compound) | Photoprotection (%) 10 μM Mean ([1]; 10 μM compound) | Photoprotection (%) 20 μM Mean ([1]; 20 μM compound) | Eye TMax [2, 5] | survival of RPE cells after illumination in the presence of A2E [3] | Plasma CMax [4, 5] | Plasma TMax [4, 5] | Plasma Exposure ([4]; mice, p.o. 50 mg/kg in VitE-TPGS 20% in sodium bicarbonate buffer (0.1M), area under the curve) | viability at 5 µM ([1]; 5 μM compound) | viability at 10 µM ([1]; 10 μM compound) | viability at 20 µM ([1]; 20 μM compound)
3 | CC(/C=C/C=C(C)/C=C/C(=O)O)=C\C=C\C=C(C)\C=C\C=C(C)\C=C\C(=O)O [BIO201, 6,6′-diapocarotene-6,6′-dioate, reference compound] | 22.4 ng · h/eye | 8.6 ng/eye | – | – | – | – | 19.2% | 34.1% | 63.6% | 0.5 h | 80% | 34.99 µg/mL | 0.25 h | 100.7 µg·h/mL | – | – | –
